The numbers were not newly measured in patent EP3196312B1, “EFFICIENT CONVERSION OF METHYLGLYOXAL INTO HYDROXYACETONE USING NOVEL ENZYMES AND APPLI CATIONS THEREOF” (Metabolic Explorer, priority 2016, dated 2017), which cites them from elsewhere.

Series [1] addresses T1, Escherichia coli YqhD (alcohol dehydrogenase, Uniprot Q46856), wild type, SEQ ID NO: 7 (Escherichia coli, UniProt Q46856).
T1 sequence (Q46856 1-387): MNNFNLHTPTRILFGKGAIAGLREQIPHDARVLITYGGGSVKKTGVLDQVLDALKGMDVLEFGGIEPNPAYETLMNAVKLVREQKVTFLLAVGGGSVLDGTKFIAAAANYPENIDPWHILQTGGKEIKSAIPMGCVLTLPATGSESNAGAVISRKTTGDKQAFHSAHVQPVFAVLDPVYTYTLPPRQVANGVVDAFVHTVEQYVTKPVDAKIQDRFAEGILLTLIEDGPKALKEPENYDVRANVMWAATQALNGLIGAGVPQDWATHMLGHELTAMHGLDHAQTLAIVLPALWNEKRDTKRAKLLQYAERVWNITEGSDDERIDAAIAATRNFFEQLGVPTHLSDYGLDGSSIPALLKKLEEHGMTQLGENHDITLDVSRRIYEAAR
The following applies: toward methylglyoxal and NADPH; as cited from WO 2011/012697.

For series [2], the target named is T2, Escherichia coli YqhD variant YqhD*(G149E), SEQ ID NO: 9 (Escherichia coli, UniProt Q46856, G149E).
T2 sequence (Q46856 1-387 G149E): T1 sequence (Q46856 1-387)
The following applies: toward methylglyoxal and NADPH; as cited from WO 2011/012697.

A word on the Km: it is the substrate concentration at which the rate is half of its maximum. Regarding `CC(=O)C=O` [methylglyoxal], the Km in series [1] was 2.09 mM; in series [2], 2.92 mM.
